Data set [1] has as its system cancer cells expressing EGFR. The experiment in a line: confocal microscopy of Cy5-labelled aptamer/construct uptake. The data set is classed as cell-based. The conditions noted are these: live HeLa cells, 200 nM, Lysotracker and early endosome GFP stains. As for the experimental part: Cells were imaged by confocal microscopy after treatment with 200 nM Cy5-labelled E07min aptamer (A-1.0) or 200 nM Cy5-labelled constructs (SQ1-1000-001). For aptamer uptake experiments, 1x10^4 cells were plated in each well of a µ-Slide 8 well ibiditreat chamber (IBIDI), in 300 µL DMEM containing 10% v/v FBS. For uptake experiments, 3.4x10^3 cells (HeLa, MDA-MB-231 and A549 cells) or 6.8x10^3 cells (Mcf-7) were plated in each well of a µ-Slide 18 well ibiditreat chamber (IBIDI), in 100 µL DMEM containing 10% v/v FBS. 5 hours after cells had adhered and 48 hours before imaging, media was replaced with 50 particles per cell (PPC) CellLight early endosome-GFP (Thermo Fisher Scientific) for overnight incubation at 37° C. Additionally, 200 µL DMEM aliquots containing 200 nM aptamer were added to cells at corresponding incubation time points. Subsequently, media was removed and replaced with 60 nM LysoTracker Red DND-99 (Thermo Fisher Scientific) in 100-200 µL DMEM for 1 hour at 37° C. Cells were then washed once with Hank’s Balanced Salt Solution (HBSS) (Gibco). Finally, 100-200 µL imaging media (HBSS buffered with 20 mM 4-(2- hydroxyethyl)-1-piperazineethanesulfonic acid (HEPES), adjusted to pH 7.4) was added to cells. Confocal images were captured with an EVOS microscope or a Zeiss LSM510 laser scanning microscope using 60x oil objective lens. Images were produced using ImageJ software.

Data set [2] deals with EGFRvIII overexpressing HEK293T cells. Description: FACS based fluorescent molecule uptake assay. It is filed as cell-based. Particulars: 200 nM, 2 hours. From the text:
A number of different cell types have been trialled for a FACS based fluorescent molecule uptake assay. These include stably transfected HEK293T cells overexpressing the truncated mutant EGFRvIII, which is characterised by a deletion of 267 amino acids in the extracellular domain and results in a receptor unable to bind ligand yet constitutively active. WT cells with various endogenous levels of EGFR expression have also been trialled: HELA cells (EGFR+), MCF-7 (EGFR-), MDA-MB-231 (EGFR+), and A549 (EGFR+). Seeding densities used were identical for all experiments and described below.
Cells were plated with 1x10^5 cells per well of 24 well plates. 24 hours later cells were treated with 200 nM of specified aptamer (A-1.0 or A-2.0) or nucleic acid nanoparticle in 250 µL DMEM media for 2 hours. To terminate internalisation, media was removed from cells and washed with 500 µL Dulbecco’s Phosphate Buffered Saline (D-PBS), followed by trypsinisation, neutralisation in DMEM media and transfer to labelled 1.5 mL Eppendorf tubes. […]
Geometric mean quantification of flow cytometry results after normalisation by removal of respective background fluorescence in untreated cells. Numbers above the bars are calculated fold increase in internalisation between control and EGFRvIII overexpressing HEK293T cells. […]

Entries after “also recorded” stand apart in the source; their conditions may differ. {Cy5} = Cy5 fluorescent dye; r = 2'-OH (RNA); f = 2'-fluoro

“[Cy5] GGAcGGAuuuAAucGccGuAGAAAAGCAuGucAAAGccGGAAccGucc (GGACGGAUUUAAUCGCCGUAGAAAAGCAUGUCAAAGCCGGAACCGUCC; sugars from the 5' end rrrfrrrfffrrffrffrfrrrrrrrrrfrffrrrrffrrrrffrfff, 5' {Cy5}, backbone not given here) [A-1.0, 2′F U, C 5′ Cy5 E07min (SXF1) aptamer, anti-EGFR, literature-known]”: in data set [1], the “intracellular localisation after internalisation” value is given as “accumulate in lysosomes after internalisation”. Also, the “EGFR targeting specificity compared to a scramble control aptamer (A-3.0)” value in data set [2] (control vs EGFRvIII overexpressing HEK293T cells) is listed as 10 fold. Further, in data set [2] (Cy5-labelled aptamer), the “specificity of uptake (flow cytometry)” value is recorded as “more specifically uptaken than SXF2 (CL4 aptamer); also recorded: specifically uptaken by EGFR expressing cells”.

Source of the values: patent US20230183746A1, “COMPOSITIONS FOR TRANSFER OF CARGO TO CELLS” (Sixfold Bioscience Ltd., priority 2019, published 2023).
